Measurements from patent US11401277B2, “Anti-bacterial heterocyclic compounds and their synthesis” (Bugworks Research, Inc., priority 2017, dated 2022).
In brackets after ≈: the same amount, converted by molar mass. Several values for one entry are separate records, joined by “and”; a condition that tells them apart may be missing. Identical values can stand only once.

Legend:
E. faecalis ATCC 29212 = assay: MIC studies in LB Media; format: cell-based; conditions: Enterococcus faecalis, ATCC29212, read-out: Minimum Inhibitory Concentration in LB Media, E. fa
Method: (§1) Bacterial cultures that were stored as glycerol stocks at −80° C. were sub cultured on LB agar plates to obtain isolated colonies. A single colony of each strain was cultured in LB broth. The cultures were incubated at 37° C., 200 rpm till they reach an optical density (OD at 600 nm) of 0.8 to 1. […] Test compounds were dissolved in dimethyl sulfoxide (DMSO) to a stock concentration of 4 mg/ml. A two-fold dilution series of this DMSO stock was prepared in a 96 well V bottom microtitre plate from rows A to H. A 3 μL volume of these dilutions were transferred to a 96-well flat bottom microtitre assay plate. Controls to monitor the effects of DMSO and media sterility were included. Each well was inoculated with 150 μL of the above diluted culture. The plates were incubated at 37° C. overnight in a humidified incubator. The following morning, the plates were read using a Spectrophotometer at 600 nm wavelength.

[1] = tested on: Citrobacter freundii ATCC 43864; assay: MIC studies in LB Media; format: cell-based; conditions: ATCC43864, read-out: Minimum Inhibitory Concentration in LB Media, C. fr
Method: as §1

S. aureus ATCC 29213 = assay: MIC studies in LB Media; format: cell-based; conditions: Staphylococcus aureus, ATCC29213, MIC = 90% inhibition of growth, read-out: Minimum Inhibitory Concentration in LB Media, S. au
Method: as §1

[2] = tested on: Morganella morganii ATCC 25830; assay: MIC studies in LB Media; format: cell-based; conditions: ATCC25830, read-out: Minimum Inhibitory Concentration in LB Media, M. mo
Method: as §1

A. baumannii ATCC 19606 = assay: MIC studies in LB Media; format: cell-based; conditions: Acinetobacter baumannii, ATCC19606, read-out: Minimum Inhibitory Concentration in LB Media, A. ba
Method: as §1

P. aurigenosa ATCC 27853 = assay: MIC studies in LB Media; format: cell-based; conditions: Pseudomonas aeruginosa, ATCC27853, read-out: Minimum Inhibitory Concentration in LB Media, P. ae
Method: as §1

[3] = tested on: Enterobacter cloacae ATCC 13047; assay: MIC studies in LB Media; format: cell-based; conditions: ATCC13047, read-out: Minimum Inhibitory Concentration in LB Media, E. cl
Method: as §1

[4] = tested on: Proteus mirabilis ATCC 43071; assay: MIC studies in LB Media; format: cell-based; conditions: ATCC43071, read-out: Minimum Inhibitory Concentration in LB Media, P. mi
Method: as §1

K. pneumoniae ATCC 13883 = assay: MIC studies in LB Media; format: cell-based; conditions: Klebsiella pneumoniae, ATCC13883, read-out: Minimum Inhibitory Concentration in LB Media, K. pn
Method: as §1

E. coli ATCC 25922 = assay: MIC studies in LB Media; format: cell-based; conditions: Escherichia coli, ATCC25922, read-out: Minimum Inhibitory Concentration in LB Media, E. co
Method: as §1

E. coli DNA gyrase = E. coli DNA gyrase (Escherichia coli, UniProt P0AES4+P0AES6); assay: biochemical; conditions: gel based supercoiling assay; read-out: E. coli DNA Gyrase IC50
Sequence of E. coli DNA gyrase (P0AES4 whole entry, one chain of several): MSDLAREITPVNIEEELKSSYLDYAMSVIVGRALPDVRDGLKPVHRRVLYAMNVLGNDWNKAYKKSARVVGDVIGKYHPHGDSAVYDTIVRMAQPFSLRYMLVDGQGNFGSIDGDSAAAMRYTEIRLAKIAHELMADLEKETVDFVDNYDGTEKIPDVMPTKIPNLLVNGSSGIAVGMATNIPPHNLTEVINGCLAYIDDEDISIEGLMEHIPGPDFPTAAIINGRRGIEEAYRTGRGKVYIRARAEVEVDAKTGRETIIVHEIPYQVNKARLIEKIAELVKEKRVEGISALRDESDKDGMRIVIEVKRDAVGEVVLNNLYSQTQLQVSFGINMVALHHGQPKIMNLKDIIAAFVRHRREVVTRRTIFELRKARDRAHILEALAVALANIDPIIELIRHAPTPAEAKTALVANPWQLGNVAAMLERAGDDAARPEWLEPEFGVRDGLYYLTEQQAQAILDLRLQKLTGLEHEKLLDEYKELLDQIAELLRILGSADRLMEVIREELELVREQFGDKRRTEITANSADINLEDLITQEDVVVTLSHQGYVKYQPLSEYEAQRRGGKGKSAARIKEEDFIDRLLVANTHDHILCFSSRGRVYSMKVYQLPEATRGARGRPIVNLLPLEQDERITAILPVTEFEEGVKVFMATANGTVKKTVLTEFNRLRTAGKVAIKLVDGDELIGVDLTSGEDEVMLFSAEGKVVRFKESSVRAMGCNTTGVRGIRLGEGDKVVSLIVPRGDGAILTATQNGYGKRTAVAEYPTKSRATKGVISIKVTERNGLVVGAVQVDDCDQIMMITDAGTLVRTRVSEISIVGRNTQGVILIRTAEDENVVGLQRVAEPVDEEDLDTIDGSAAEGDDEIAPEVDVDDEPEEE

hERG potassium channel = molecular target: T1, hERG potassium channel (Homo sapiens, UniProt Q12809); assay: hERG inhibition assay, QPatch HTX automated electrophysiology; format: cell-based; conditions: CHO cell line expressing hERG; whole-cell patch clamp, room temperature
T1 construct: Chinese Hamster Ovary cell line stably expressing the full-length hERG potassium channel; expressed in transfected cells
T1 sequence (Q12809 whole entry): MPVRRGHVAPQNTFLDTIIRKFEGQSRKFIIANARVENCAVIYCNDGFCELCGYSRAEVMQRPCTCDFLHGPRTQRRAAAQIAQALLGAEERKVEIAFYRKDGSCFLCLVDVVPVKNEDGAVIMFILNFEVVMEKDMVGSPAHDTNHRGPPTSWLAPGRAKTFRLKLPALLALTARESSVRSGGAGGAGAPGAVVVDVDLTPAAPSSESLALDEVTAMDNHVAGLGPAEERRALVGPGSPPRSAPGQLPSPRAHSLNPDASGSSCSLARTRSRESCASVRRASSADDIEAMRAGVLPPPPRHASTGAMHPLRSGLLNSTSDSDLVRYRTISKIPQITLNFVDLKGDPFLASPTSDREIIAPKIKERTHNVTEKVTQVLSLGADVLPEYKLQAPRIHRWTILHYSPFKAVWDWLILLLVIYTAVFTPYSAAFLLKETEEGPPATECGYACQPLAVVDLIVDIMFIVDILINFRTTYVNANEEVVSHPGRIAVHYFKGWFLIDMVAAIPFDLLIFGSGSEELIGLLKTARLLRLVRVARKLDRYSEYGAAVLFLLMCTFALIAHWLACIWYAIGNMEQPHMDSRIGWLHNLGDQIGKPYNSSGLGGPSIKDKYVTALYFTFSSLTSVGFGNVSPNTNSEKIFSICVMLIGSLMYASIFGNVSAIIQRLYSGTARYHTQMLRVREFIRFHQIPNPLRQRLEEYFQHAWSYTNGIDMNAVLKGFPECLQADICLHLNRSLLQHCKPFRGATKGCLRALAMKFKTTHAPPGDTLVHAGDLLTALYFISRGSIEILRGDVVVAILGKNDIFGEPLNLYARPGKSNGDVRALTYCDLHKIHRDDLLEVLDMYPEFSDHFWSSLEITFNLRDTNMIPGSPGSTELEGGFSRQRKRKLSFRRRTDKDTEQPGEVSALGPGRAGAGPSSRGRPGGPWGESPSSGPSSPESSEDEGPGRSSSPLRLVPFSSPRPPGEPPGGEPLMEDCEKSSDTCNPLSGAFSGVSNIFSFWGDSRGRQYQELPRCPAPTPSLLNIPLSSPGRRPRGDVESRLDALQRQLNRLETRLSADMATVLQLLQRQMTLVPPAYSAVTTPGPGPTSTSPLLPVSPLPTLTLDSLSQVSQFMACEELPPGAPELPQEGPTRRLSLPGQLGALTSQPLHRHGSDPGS
Method: The compounds were tested for inhibition of the human ether a go-go related gene (hERG) K+ channel using QPatch HTX automated electrophysiology.
Compounds of Formula I were solubilised to 100 mM in DMSO before dilution in HBPS to 300 μM.
Electrophysiological recordings were made from a Chinese Hamster Ovary cell line stably expressing the full-length hERG potassium channel. Single cell ionic currents were measured in whole-cell patch clamp configuration at room temperature (21-23° C.) using the QPatch HTX platform (Sophion). Intracellular solution contained (mM): 120 KF, 20 KCl, 10 EGTA, 10 HEPES and was buffered to pH 7.3. […] Cells were clamped at a holding potential of −80 mV. Cells were stepped to +20 mV for 2 s then −40 mV for 3 s before returning to the holding potential. This sweep was repeated 10 times at 10 s intervals. hERG currents were measured from the tail step and referenced to the holding current. Compounds were then incubated for 2 minutes prior to a second measurement of ion channel current using an identical pulse train.

E. coli topoisomerase IV = E. coli topoisomerase IV (Escherichia coli, UniProt P0AFI2+P20083); assay: biochemical; conditions: gel based decatenation assay; read-out: E. coli Topo IV IC50
Sequence of E. coli topoisomerase IV (P20083 whole entry): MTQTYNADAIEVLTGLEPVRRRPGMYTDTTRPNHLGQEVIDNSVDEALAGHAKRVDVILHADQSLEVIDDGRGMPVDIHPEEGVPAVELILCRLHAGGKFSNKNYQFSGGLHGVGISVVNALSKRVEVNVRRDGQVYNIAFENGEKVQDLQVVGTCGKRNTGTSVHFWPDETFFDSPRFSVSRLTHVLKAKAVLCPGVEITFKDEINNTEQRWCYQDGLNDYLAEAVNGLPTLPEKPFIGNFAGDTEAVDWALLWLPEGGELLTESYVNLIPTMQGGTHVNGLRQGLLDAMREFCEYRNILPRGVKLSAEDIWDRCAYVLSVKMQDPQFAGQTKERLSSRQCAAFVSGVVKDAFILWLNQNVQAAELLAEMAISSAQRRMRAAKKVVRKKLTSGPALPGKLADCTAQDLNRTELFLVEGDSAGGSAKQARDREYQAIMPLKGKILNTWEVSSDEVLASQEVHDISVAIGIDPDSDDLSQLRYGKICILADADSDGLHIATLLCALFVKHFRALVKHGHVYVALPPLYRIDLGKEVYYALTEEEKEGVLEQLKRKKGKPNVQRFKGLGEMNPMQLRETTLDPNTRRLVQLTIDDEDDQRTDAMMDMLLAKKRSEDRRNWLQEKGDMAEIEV
Sequence of E. coli topoisomerase IV (P0AFI2 whole entry): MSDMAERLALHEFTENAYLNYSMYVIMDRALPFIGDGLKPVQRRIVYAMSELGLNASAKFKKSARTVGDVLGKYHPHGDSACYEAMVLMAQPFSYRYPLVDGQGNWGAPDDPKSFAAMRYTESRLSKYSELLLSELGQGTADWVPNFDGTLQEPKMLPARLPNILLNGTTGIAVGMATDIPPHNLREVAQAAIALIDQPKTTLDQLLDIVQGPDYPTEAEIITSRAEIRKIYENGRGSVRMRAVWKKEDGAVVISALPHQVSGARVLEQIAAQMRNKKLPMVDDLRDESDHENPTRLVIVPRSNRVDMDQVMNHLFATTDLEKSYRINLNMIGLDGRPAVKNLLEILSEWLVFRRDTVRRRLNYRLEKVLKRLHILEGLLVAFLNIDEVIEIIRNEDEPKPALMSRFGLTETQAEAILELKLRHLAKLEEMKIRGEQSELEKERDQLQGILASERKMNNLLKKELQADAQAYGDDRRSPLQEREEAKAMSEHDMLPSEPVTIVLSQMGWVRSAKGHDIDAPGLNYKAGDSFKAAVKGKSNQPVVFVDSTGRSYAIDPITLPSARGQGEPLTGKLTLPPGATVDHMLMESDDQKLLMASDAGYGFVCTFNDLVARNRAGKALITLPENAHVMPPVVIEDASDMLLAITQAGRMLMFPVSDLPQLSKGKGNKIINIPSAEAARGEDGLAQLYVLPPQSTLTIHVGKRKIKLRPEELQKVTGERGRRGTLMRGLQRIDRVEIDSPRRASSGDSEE

[5] = tested on: P. aurigenosa clinical strains; assay: Susceptibility (MIC50 and MIC90 determination) studies, clinical strains; format: cell-based; conditions: CLSI
[6] = tested on: E. cloacae clinical strains; assay: as above; format: cell-based; conditions: CLSI
E. coli [ATCC25922] = assay: Urinary Tract Infection Rat Model (kidneys, bladder); conditions: 30 mg/kg, i.v. bolus
E. coli clinical strains = assay: Susceptibility (MIC50 and MIC90 determination) studies, clinical strains; format: cell-based; conditions: CLSI
[7] = tested on: K. pneumoniae clinical strains; assay: as above; format: cell-based; conditions: CLSI
[8] = tested on: P. aeruginosa [ATCC27853]; assay: Neutropenic Lung Infection Model in Rat; format: in vivo; conditions: 30 mg/kg, i.v. bolus
Method: Animals were placed into an induction chamber and anaesthesia was induced by exposing the animals to 3-5% Isoflurane in an oxygen flow set at approximately (˜) 1 liter per minute (LPM). […] A gentle mixing of inoculum between two animals was followed for uniform distribution.
Meropenem was formulated in saline.
Entire Lung was aseptically isolated, weighed and placed into 1 mL of sterile CSDB broth, and homogenized (Omni Tip (220 V hand held)). Serial ten-fold dilutions of the lungs homogenates were prepared in sterile CSD broth and 0.05 mL of four dilutions for each tissue was plated onto CSDA agar plates. Bacterial colonies were enumerated following overnight incubation at 37° C. Bacterial densities were estimated as Log10 CFU/g lung. The Mean±SD Log10 CFU/g lung was estimated in each group.

[9] = tested on: A. baumanni clinical strains; assay: Susceptibility (MIC50 and MIC90 determination) studies, clinical strains; format: cell-based; conditions: CLSI
[10] = individual animals, 24 h post infection
[11] = Escherichia coli, E. coli clinical strains
[12] = Klebsiella pneumoniae, Kpn clinical strains

Cn1c(=O)cnc2ccc(F)c(OCCNC[C@H]3CN(c4cnc5c(n4)NC(=O)CO5)C(=O)O3)c21 [Compound 7, (S)-6-(5-(((2-((6-fluoro-4-methyl-3-oxo-3,4-dihydroquinoxalin-5-yl)oxy)ethyl)amino)methyl)-2-oxooxazolidin-3-yl)-2H-pyrazino[2,3-b][1,4]oxazin-3(4H)-one]
MIC (E. faecalis ATCC 29212): 0.06 µg/mL (≈ 0.124 µM) | MIC [1]: 0.06 µg/mL (≈ 0.124 µM) | MIC (S. aureus ATCC 29213): ≤ 0.015 µg/mL | MIC [2]: 0.06 µg/mL (≈ 0.124 µM) | MIC (A. baumannii ATCC 19606): 0.06 µg/mL (≈ 0.124 µM) | MIC (P. aurigenosa ATCC 27853): 0.25 µg/mL (≈ 0.515 µM) | MIC [3]: 0.125 µg/mL (≈ 0.258 µM) | MIC [4]: 0.25 µg/mL (≈ 0.515 µM) | MIC (K. pneumoniae ATCC 13883): 0.06 µg/mL (≈ 0.124 µM) | MIC (E. coli ATCC 25922): 0.03 µg/mL (≈ 0.0618 µM) | IC50 (E. coli DNA gyrase): 0.015 µM | IC50 (hERG potassium channel): > 300 µM | IC50 (E. coli topoisomerase IV): < 0.22 µM

Cn1c(=O)cnc2ccc(F)c(OCCNC[C@H]3CN(c4cnc5c(n4)NC(=O)CS5)C(=O)O3)c21 [Compound 10, (S)-5-(((2-((6-fluoro-4-methyl-3-oxo-3,4-dihydroquinoxalin-5-yl)oxy)ethyl)amino)methyl)-3-(3-oxo-3,4-dihydro-2H-pyrazino[2,3-b][1,4]thiazin-6-yl)oxazolidin-2-one]
MIC (E. faecalis ATCC 29212): 0.025 µg/mL (≈ 0.0499 µM) | MIC [1]: 0.025 µg/mL (≈ 0.0499 µM) | MIC (S. aureus ATCC 29213): ≤ 0.003 µg/mL | MIC [2]: 0.025 µg/mL (≈ 0.0499 µM) | MIC (A. baumannii ATCC 19606): 0.013 µg/mL (≈ 0.0259 µM) | MIC (P. aurigenosa ATCC 27853): 0.25 µg/mL (≈ 0.499 µM) | MIC [3]: 0.05 µg/mL (≈ 0.0997 µM) | MIC [4]: 0.125 µg/mL (≈ 0.249 µM) | MIC (K. pneumoniae ATCC 13883): 0.025 µg/mL (≈ 0.0499 µM) | MIC (E. coli ATCC 25922): 0.025 µg/mL (≈ 0.0499 µM) | IC50 (E. coli DNA gyrase): 0.022 µM | IC50 (hERG potassium channel): 19 µM | IC50 (E. coli topoisomerase IV): < 0.37 µM

C[C@@H](O)[C@H]1C(=O)N2C(C(=O)O)=C(S[C@@H]3CN[C@H](C(=O)N(C)C)C3)[C@H](C)[C@H]12 [Meropenem, meropenem, reference compound]
MIC50 ([5]; Pae clinical strains): 2 µg/mL (≈ 5.22 µM) | MIC90 ([5]; Pae clinical strains): 8 µg/mL (≈ 20.9 µM) | Minimum (MIC) ([5]; Pae clinical strains, MIC50/MIC90 in μg/ml): 0.03 µg/mL | MIC ATCC27853 ([5]; Pae reference strain ATCC27853, MIC50/MIC90 in μg/ml): 0.5 µg/mL (≈ 1.3 µM) | Minimum (MIC) ([6]; MIC50/MIC90 in μg/ml): 0.06 µg/mL | MIC50 ([6]; Enterobacter cloacae): 0.25 µg/mL (≈ 0.652 µM) | MIC90 ([6]; Enterobacter cloacae): 16 µg/mL (≈ 41.7 µM) | MEAN ± SD (Log10 CFU/g kidneys) (E. coli [ATCC25922]): 3.83 ± 0.27 Log10 CFU/g kidneys | MEAN ± SD (Log10 CFU/ml Bladder) (E. coli [ATCC25922]): 4.69 ± 0.32 Log10 CFU/ml Bladder | Mean Log10CFU/g kidney reduction (wrt 4 h PI control: 4.53 Log10CFU/g kidneys) (E. coli [ATCC25922]): 0.70 Log10CFU/g kidney | Mean Log10 CFU/ml Bladder reduction (wrt 4 h PI control: 5.72 CFU/ml Bladder) (E. coli [ATCC25922]): 1.03 Log10 CFU/ml Bladder | Log10 CFU/g (Left Kidney) (E. coli [ATCC25922]; [10]): 3.61 Log10 CFU/g and 3.92 Log10 CFU/g and 4.06 Log10 CFU/g | Log10 CFU/g (Right Kidney) (E. coli [ATCC25922]; [10]): 3.41 Log10 CFU/g and 4.12 Log10 CFU/g and 3.87 Log10 CFU/g | Log10 CFU/ml Bladder (E. coli [ATCC25922]; [10]): 4.87 Log10 CFU/ml Bladder and 4.33 Log10 CFU/ml Bladder and 4.89 Log10 CFU/ml Bladder | Minimum (MIC) (E. coli clinical strains; E. coli clinical strains, MIC50/MIC90 in μg/ml): 0.03 µg/mL | MIC ATCC25922 (E. coli clinical strains; E. coli reference strain ATCC25922, MIC50/MIC90 in μg/ml): 0.06 µg/mL (≈ 0.156 µM) | MIC50 (E. coli clinical strains; [11]): 0.06 µg/mL (≈ 0.156 µM) | MIC90 (E. coli clinical strains; [11]): 4 µg/mL (≈ 10.4 µM) | MIC50 [7, 12]: 1 µg/mL (≈ 2.61 µM) | MIC90 [7, 12]: 16 µg/mL (≈ 41.7 µM) | Minimum (MIC) ([7]; Kpn clinical strains, MIC50/MIC90 in μg/ml): 0.03 µg/mL | MIC ATCC13883 ([7]; Kpn reference strain ATCC13883, MIC50/MIC90 in μg/ml): 0.06 µg/mL (≈ 0.156 µM) | MEAN ± SD (Log10 CFU/g Lung) [8]: 5.43 ± 0.14 Log10 CFU/g Lung | Mean Log 10 CFU/g lung reduction (wrt 4 h PI control: 6.52 Log10CFU/g lung) [8]: 1.09 Log 10 CFU/g lung | Log10 CFU/g Lung [8, 10]: 5.35 Log10 CFU/g Lung and 5.36 Log10 CFU/g Lung and 5.59 Log10 CFU/g Lung | MIC50 ([9]; Aba clinical strains): 8 µg/mL (≈ 20.9 µM) | MIC90 ([9]; Aba clinical strains): 32 µg/mL (≈ 83.4 µM) | Minimum (MIC) ([9]; Aba clinical strains, MIC50/MIC90 in μg/ml, in µg/mL): 0.03125 | MIC ATCC19606 ([9]; Aba reference strain ATCC19606, MIC50/MIC90 in μg/ml): 0.5 µg/mL (≈ 1.3 µM)
